In PubChem BioAssay AID2060899 (Molecular Pharmacology Branch, DTP, NCI, 2025):

Tested on: 565726-208-R1-J5-PDC complex spheroids, growth inhibition
Test: Anticancer human tumor 565726-208-R1-J5-PDC patient-derived pancreatic adenocarcinoma cell line growth inhibition [RAS]
Settings: for IC50: curve of first compound; for viability, T/C: stronger effect = lower value
Summary of the method: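 Tumour cells grown as complex spheroids with HUVEC endothelial cells and mesenchymal stem cells, treated with RAS pathway inhibitor combinations. Each agent spans half-log steps from near clinical Cmax, or 10 microM where Cmax is unknown.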

[1] = second compound 0.000949 µM, first compound 0.0316 µM
[2] = second compound 0.000949 µM, first compound 0.1 µM
[3] = second compound 0.000949 µM, first compound 0.316 µM
[4] = second compound 0.000949 µM, first compound 1 µM
[5] = second compound 0.003 µM, first compound 0.0316 µM
[6] = second compound 0.003 µM, first compound 0.1 µM
[7] = second compound 0.003 µM, first compound 0.316 µM
[8] = second compound 0.003 µM, first compound 1 µM
[9] = second compound 0.00949 µM, first compound 0.0316 µM
[10] = second compound 0.00949 µM, first compound 0.1 µM
[11] = second compound 0.00949 µM, first compound 0.316 µM
[12] = second compound 0.00949 µM, first compound 1 µM
[13] = second compound 0.03 µM, first compound 0.0316 µM
[14] = second compound 0.03 µM, first compound 0.1 µM
[15] = second compound 0.03 µM, first compound 0.316 µM
[16] = second compound 0.03 µM, first compound 1 µM
[17] = second compound 0.0949 µM, first compound 0.0316 µM
[18] = second compound 0.0949 µM, first compound 0.1 µM
[19] = second compound 0.0949 µM, first compound 0.316 µM
[20] = second compound 0.0949 µM, first compound 1 µM
[21] = second compound 0.3 µM, first compound 0.0316 µM
[22] = second compound 0.3 µM, first compound 0.1 µM
[23] = second compound 0.3 µM, first compound 0.316 µM
[24] = second compound 0.3 µM, first compound 1 µM
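Note: spheroids exposed to compounds for seven days before readout.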
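Throughout, for viability, T/C: 100% = DMSO vehicle control viability.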

`O=C(c1ccc(F)c(F)c1Nc1ccc(I)cc1F)N1CC(O)([C@@H]2CCCCN2)C1` + CCn1c(-c2cccnc2C(C)OC)c2c3cc(ccc31)N1CCOC(CC(NC(=O)C(C(C)C)N(C)C(=O)C3(F)CCN(C(=O)C#CC(C)(C)N(C)C)CC3)C(=O)N3CCCC(N3)C(=O)OCC(C)(C)C2)C1 gave an IC50 (second compound 0.000949 µM) of 161 nM, an IC50 (second compound 0.003 µM) of 130 nM and an IC50 (second compound 0.00949 µM) of 160 nM. The IC50 (second compound 0.03 µM) was 182 nM, the IC50 (second compound 0.0949 µM) was 192 nM and the IC50 (second compound 0.3 µM) was 95.7 nM. It also gave a viability, T/C (second compound 0.000949 µM, first compound 0.00316 µM) of 95.3%, a viability, T/C (second compound 0.000949 µM, first compound 0.01 µM) of 83.2% and a viability, T/C [1] of 76.8%. It also gave a viability, T/C [2] of 55.4%, a viability, T/C [3] of 40% and a viability, T/C [4] of 17.7%. For the same compound, the viability, T/C (second compound 0.003 µM, first compound 0.00316 µM) was 96.4%, the viability, T/C (second compound 0.003 µM, first compound 0.01 µM) was 80.4% and the viability, T/C [5] was 71.8%. For the same compound, the viability, T/C [6] was 53.2%, the viability, T/C [7] was 36.8% and the viability, T/C [8] was 19%. For the same compound, the viability, T/C (second compound 0.00949 µM, first compound 0.00316 µM) was 93.7%, the viability, T/C (second compound 0.00949 µM, first compound 0.01 µM) was 87.3% and the viability, T/C [9] was 67.7%. For the same compound, the viability, T/C [10] was 57.1%, the viability, T/C [11] was 43.2% and the viability, T/C [12] was 19.9%. The viability, T/C (second compound 0.03 µM, first compound 0.00316 µM) was 82.7%, the viability, T/C (second compound 0.03 µM, first compound 0.01 µM) was 82.3% and the viability, T/C [13] was 77.9%. For the same compound, the viability, T/C [14] was 59.5%, the viability, T/C [15] was 40.6% and the viability, T/C [16] was 19.4%. It also gave a viability, T/C (second compound 0.0949 µM, first compound 0.00316 µM) of 82.8%, a viability, T/C (second compound 0.0949 µM, first compound 0.01 µM) of 78.8% and a viability, T/C [17] of 72.9%. It also gave a viability, T/C [18] of 57.4%, a viability, T/C [19] of 43.8% and a viability, T/C [20] of 19.8%. For the same compound, the viability, T/C (second compound 0.3 µM, first compound 0.00316 µM) was 82.6%, the viability, T/C (second compound 0.3 µM, first compound 0.01 µM) was 71.2% and the viability, T/C [21] was 67.5%. For the same compound, the viability, T/C [22] was 45.9%, the viability, T/C [23] was 34.4% and the viability, T/C [24] was 13.6%.

`NC1c2ccccc2OC12CCN(c1cnc3c(N4CCCc5ncccc54)n[nH]c3n1)CC2` (centres undefined) + CCn1c(-c2cccnc2C(C)OC)c2c3cc(ccc31)N1CCOC(CC(NC(=O)C(C(C)C)N(C)C(=O)C3(F)CCN(C(=O)C#CC(C)(C)N(C)C)CC3)C(=O)N3CCCC(N3)C(=O)OCC(C)(C)C2)C1 showed an IC50 (second compound 0.000949 µM) greater than 10000 nM, an IC50 (second compound 0.003 µM) greater than 10000 nM and an IC50 (second compound 0.00949 µM) greater than 10000 nM. For the same compound, the IC50 (second compound 0.03 µM) was greater than 10000 nM, the IC50 (second compound 0.0949 µM) was greater than 10000 nM and the IC50 (second compound 0.3 µM) was 8090 nM. The viability, T/C [1] was 82.5%, the viability, T/C [2] was 77.5% and the viability, T/C [3] was 72.6%. The viability, T/C [4] was 60.9%, the viability, T/C (second compound 0.000949 µM, first compound 3.16 µM) was 65.7% and the viability, T/C (second compound 0.000949 µM, first compound 10 µM) was 56.9%. It also gave a viability, T/C [5] of 82.6%, a viability, T/C [6] of 76.8% and a viability, T/C [7] of 70%. For the same compound, the viability, T/C [8] was 65%, the viability, T/C (second compound 0.003 µM, first compound 3.16 µM) was 62.9% and the viability, T/C (second compound 0.003 µM, first compound 10 µM) was 60.5%. For the same compound, the viability, T/C [9] was 76.3%, the viability, T/C [10] was 85.5% and the viability, T/C [11] was 70%. For the same compound, the viability, T/C [12] was 65%, the viability, T/C (second compound 0.00949 µM, first compound 3.16 µM) was 64.8% and the viability, T/C (second compound 0.00949 µM, first compound 10 µM) was 55.5%. It also gave a viability, T/C [13] of 85.4%, a viability, T/C [14] of 76.3% and a viability, T/C [15] of 73.4%. It also gave a viability, T/C [16] of 62.7%, a viability, T/C (second compound 0.03 µM, first compound 3.16 µM) of 58.8% and a viability, T/C (second compound 0.03 µM, first compound 10 µM) of 58.5%. It also gave a viability, T/C [17] of 78.8%, a viability, T/C [18] of 75.6% and a viability, T/C [19] of 71.5%. For the same compound, the viability, T/C [20] was 65%, the viability, T/C (second compound 0.0949 µM, first compound 3.16 µM) was 58.5% and the viability, T/C (second compound 0.0949 µM, first compound 10 µM) was 57%. The viability, T/C [21] was 72.8%, the viability, T/C [22] was 68.2% and the viability, T/C [23] was 68.8%. For the same compound, the viability, T/C [24] was 59.5%, the viability, T/C (second compound 0.3 µM, first compound 3.16 µM) was 54.2% and the viability, T/C (second compound 0.3 µM, first compound 10 µM) was 49.5%.
